In patent US9309191B2 (priority 2013, dated 2016):

Tested on: Magnaporthe grisea
Type: in vivo
Details: rice (Nipponbare); for lesion area of treated plants relative to the lesion area in the non-treated plant: 200 ppm foliar spray, contact with affected seedlings for 6 days; for Lesion Area (%): Concentration 200 ppm foliar spray, table

| Structure (SMILES) | lesion area of treated plants relative to the lesion area in the non-treated plant [%] | Lesion Area (%) |
| --- | --- | --- |
| Cc1cc(OCC2CC2)c(C)cc1/N=C/N(C)C [1-17, N′-(4-cyclopropylmethoxy-2,5-dimethylphenyl)-N,N-dimethylformamidine] | ≤ 10 | 1-10% |
| Cc1cc(OCC2CCCCC2)c(C)cc1N=CN(C)C [Compound 267, N′-(4-cyclohexylmethoxy-2,5-dimethylphenyl)-N,N-dimethylformamidine] | ≤ 50 | 31-50% |
